Measured values as given in patent US20210115104A1, “AMYLIN ANALOGUES” (Zealand Pharma A/S, priority 2015, published 2021).
*1 amine or outer side, *2 acyl side, *3 side chain or, on linkers, in order; H or OH if unused. Where a SMILES comes first, the peptide text is derived from it. Bridges are numbered along the chain shown (N, C = ends). [ ]: non-standard residue; d: D form. The star is where a group is joined. C20 diacid = O=C(O)CCCCCCCCCCCCCCCCCCC(=O)*; γGlu = O=C(O)[C@H](CCC(=O)[*:2])N[*:1]; Hyp = O=C(O)[C@@H]1C[C@@H](O)CN1; NMeI = CC[C@H](C)[C@H](NC)C(=O)O; Orn = NCCC[C@H](N)C(=O)O; Sar = CNCC(=O)O

Assays:
[1] = Pharmacokinetic (PK) profiling in rats; type: in vivo, rat; parameters: CI/F (apparent clearance values): unit not given here; settings: Sprague Dawley male rats, single sc 30 nmol/kg
Procedure: Sprague Dawley male rats were given a single subcutaneous (sc) bolus of each peptide to be tested, as specified below. 30 nmol/kg doses of compound were administered. Blood samples were drawn from the tail vein prior to dosing and at 24, 48, 72, 96 and 168 hours after dosing. Blood samples were taken from two rats at each time point, and only 2 blood samples were drawn from each rat, i.e. […] were used for each compound. The rats were euthanized immediately after the last blood sampling by concussion and cervical dislocation.
The dosing vehicle used for each test peptide was a mannitol-containing histidine buffer (pH 7.0). Plasma samples were analyzed after precipitation with ethanol by liquid chromatography mass spectrometry (LC-MS/MS). Mean plasma concentrations were used for calculation of the pharmacokinetic parameters using the non-compartmental approach in Phoenix WinNonlin 6.3.
Plasma terminal elimination half-life (t1/2) was determined as ln(2)/λz, where λz is the magnitude of the slope of the log linear regression of the log concentration versus time profile during the terminal phase. Apparent clearance (CL/F) was determined as dose/AUCinf (sc), where AUCinf is the area under the plasma concentration vs. time curve extrapolated to infinity (AUCinf=AUClast+Clast/λz, where Clast is the last observed plasma concentration).

[2] = target: T1, human calcitonin receptor (hCTR2) (Homo sapiens, UniProt P30988); assay: hCTR2 cAMP assay (AlphaScreen) in COS7 cells; type: cell-based; settings: cAMP induction, COS7 cells expressing hCTR2; Table 1; read-out: hCTR2 EC50
T1 construct: expressed in transfected cells
T1 sequence (P30988 25-474): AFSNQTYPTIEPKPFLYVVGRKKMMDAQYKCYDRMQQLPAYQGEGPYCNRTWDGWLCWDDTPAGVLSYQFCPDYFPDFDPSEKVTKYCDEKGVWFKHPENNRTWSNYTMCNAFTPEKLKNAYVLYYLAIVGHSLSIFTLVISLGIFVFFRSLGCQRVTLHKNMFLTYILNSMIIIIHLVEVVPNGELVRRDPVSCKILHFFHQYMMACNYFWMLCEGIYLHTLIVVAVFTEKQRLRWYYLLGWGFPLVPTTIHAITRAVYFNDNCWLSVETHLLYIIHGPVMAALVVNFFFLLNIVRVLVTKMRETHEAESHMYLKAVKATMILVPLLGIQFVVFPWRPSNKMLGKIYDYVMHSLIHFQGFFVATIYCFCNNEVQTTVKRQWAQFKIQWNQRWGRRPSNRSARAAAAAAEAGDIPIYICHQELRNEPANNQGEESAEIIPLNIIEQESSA
Procedure, shortened: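 cAMP induction, read by AlphaScreen after lysis, gives EC50 values via 4PL curve fitting. Peptides were applied at rising concentrations for 15 min at 37 °C, with IBMX and 0.1% casein in HEPES-buffered Tyrode pH 7.4, to COS7 cells (no endogenous RAMPs) stably expressing human CTR2.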

[3] = Assessment of physical stability (Thioflavin T fibrillation); type: physicochemical; parameters: key: FND = fibrillation not detected; FD = fibrillation detected; settings: 1 mg/ml, 40° C., ThT; for Fibrillation pH 4.0 (Ac): 50 mM acetate buffer pH 4.0, 96 hours; for Fibrillation pH 7.0 (His): 50 mM histidine buffer pH 7.0, 96 hours; for Fibrillation pH 7.0 (Phos.): 50 mM phosphate buffer pH 7.0, 96 hours
Procedure, shortened: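 Fibrillation lag-time, in hours, taken where regressions of the initial stable phase and the growth phase intersect. ThT (40 μM) fluorescence monitored at 40 °C for 96 h, 10-min reads each preceded by 300 s mixing. Peptide at 1 mg/ml in 50 mM buffers: phosphate or histidine pH 7.0, acetate pH 4.0.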

[4] = Assessment of chemical stability (RP-HPLC normalized purity); type: physicochemical; settings: 7 days, 40° C., Table 1; for Normalized purity after 7 days, 40° C., pH 4: pH 4, 0.2 mg/ml; for Normalized purity after 7 days, 40° C., pH 6: pH 6, 0.2 mg/ml; for Normalized purity after 7 days, 40° C., pH 7.5: pH 7.5, 0.2 mg/ml; for Normalized purity after 7 days, 40° C., pH 9: pH 9, 0.2 mg/ml
Procedure, shortened: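 Purity after 7 days at 40° C is expressed relative to T=0 (set to 100) for each pH. Samples at 0.2 mg/ml, pH 4, 6, 7.5 or 9, analyzed by RP-HPLC with UV 220 nm on C8 (ammonium formate) or C18 (TFA) gradients.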

[5] = target: T2, human amylin receptor 3 (hAMYR3), hCTR2 co-expressed with hRAMP3 (Homo sapiens, UniProt O60896+P30988); assay: hAMYR3 cAMP assay (AlphaScreen) in COS7 cells; type: cell-based; settings: cAMP induction, COS7 cells expressing hAMYR3; Table 1; read-out: hAMYR3 EC50
T2 construct: expressed in transfected cells
T2 sequence (P30988 25-474): T1 sequence (P30988 25-474)
T2 sequence (O60896 24-148 partner): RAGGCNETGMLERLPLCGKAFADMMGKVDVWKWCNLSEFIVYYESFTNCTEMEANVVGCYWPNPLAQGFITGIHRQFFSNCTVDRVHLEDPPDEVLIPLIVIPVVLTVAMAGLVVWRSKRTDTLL
Procedure, shortened: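 EC50 values derive from 4PL curve fits of cAMP (AlphaScreen) in lysates of RAMP-naive COS7 cells stably carrying hCTR2 plus hRAMP3. Peptide dilution series were applied for 15 min at 37 °C in pH 7.4 Tyrode buffer containing 100 µM IBMX and 0.1% casein.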

Row | CI/F (apparent clearance values) [1] | EC50 [2] | Fibrillation pH 4.0 (Ac) [3] | Fibrillation pH 7.0 (His) [3] | Fibrillation pH 7.0 (Phos.) [3] | Normalized purity after 7 days, 40° C., pH 4 [4] | Normalized purity after 7 days, 40° C., pH 6 [4] | Normalized purity after 7 days, 40° C., pH 7.5 [4] | Normalized purity after 7 days, 40° C., pH 9 [4] | EC50 [5] | Compound
1 | 0.0096 | 0.099 nM | FND | FD | FD | A (A = >90%) | B (B = 70-90%) | B (B = 70-90%) | B (B = 70-90%) |  | CC[C@H](C)[C@@H](C(=O)N[C@@H](CC(C)C)C(=O)N[C@@H](CO)C(=O)N[C@@H](CO)C(=O)N[C@H](C(=O)N[C@@H](CCC(=O)O)C(=O)N[C@H](C(=O)NCC(=O)N[C@@H](CO)C(=O)N[C@@H](CO)C(=O)N[C@H](C(=O)N1C[C@H](O)C[C@H]1C(N)=O)[C@@H](C)O)C(C)C)[C@@H](C)O)N(C)C(=O)[C@H](C)NC(=O)CN(C)C(=O)[C@H](Cc1ccccc1)NC(=O)[C@H](CO)NC(=O)[C@H](CO)NC(=O)[C@H](CCCNC(=N)N)NC(=O)[C@@H](NC(=O)[C@H](CC(C)C)NC(=O)[C@H](Cc1ccccc1)NC(=O)[C@H](Cc1c[nH]cn1)NC(=O)[C@H](C)NC(=O)[C@H](CC(C)C)NC(=O)[C@H](CCCNC(=N)N)NC(=O)[C@H](CCC(=O)O)NC(=O)[C@@H](NC(=O)[C@H](C)NC(=O)[C@@H]1CSSC[C@H](NC(=O)[C@H](CCCNC(=N)N)NC(=O)CC[C@H](NC(=O)CCCCCCCCCCCCCCCCCCC(=O)O)C(=O)O)C(=O)NCC(=O)N[C@@H]([C@@H](C)O)C(=O)N[C@@H](C)C(=O)N[C@@H]([C@@H](C)O)C(=O)N1)[C@@H](C)O)[C@@H](C)O [Compound 9, [19CD]-isoGlu-R-C( )-GTAT-C( )-ATERLAHFLTRSSF-Gly(Me)-A-Ile(Me)-LSSTEVGSST-Hyp-NH2] ({C20 diacid-γGlu}-RCGTATCATERLAHFLTRSSF[Sar]A[NMeI]LSSTEVGSST[Hyp]-NH2; disulfide 2-7)
2 | 0.0118 |  | FND | FD | FD | A (A = >90%) | B (B = 70-90%) | A (A = >90%) | B (B = 70-90%) | 0.2 nM | CC[C@H](C)[C@@H](C(=O)N[C@@H](CC(C)C)C(=O)N[C@@H](CO)C(=O)N[C@@H](CO)C(=O)N[C@H](C(=O)N[C@@H](CCC(=O)O)C(=O)N[C@H](C(=O)NCC(=O)N[C@@H](CO)C(=O)N[C@@H](CCCN)C(=O)N[C@H](C(=O)N1C[C@H](O)C[C@H]1C(N)=O)[C@@H](C)O)C(C)C)[C@@H](C)O)N(C)C(=O)[C@H](C)NC(=O)CN(C)C(=O)[C@H](Cc1ccccc1)NC(=O)[C@H](CO)NC(=O)[C@H](CO)NC(=O)[C@H](CCCNC(=N)N)NC(=O)[C@@H](NC(=O)[C@H](CC(C)C)NC(=O)[C@H](Cc1ccccc1)NC(=O)[C@H](Cc1c[nH]cn1)NC(=O)[C@H](C)NC(=O)[C@H](CC(C)C)NC(=O)[C@H](CCCNC(=N)N)NC(=O)[C@H](CCC(=O)O)NC(=O)[C@@H](NC(=O)[C@H](C)NC(=O)[C@@H]1CSSC[C@H](NC(=O)[C@H](CCCNC(=N)N)NC(=O)CC[C@H](NC(=O)CCCCCCCCCCCCCCCCCCC(=O)O)C(=O)O)C(=O)NCC(=O)N[C@@H]([C@@H](C)O)C(=O)N[C@@H](C)C(=O)N[C@@H]([C@@H](C)O)C(=O)N1)[C@@H](C)O)[C@@H](C)O [Compound 11, [19CD]-isoGlu-R-C( )-GTAT-C( )-ATERLAHFLTRSSF-Gly(Me)-A-Ile(Me)-LSSTEVGS-Orn-T-Hyp-NH2] ({C20 diacid-γGlu}-RCGTATCATERLAHFLTRSSF[Sar]A[NMeI]LSSTEVGS[Orn]T[Hyp]-NH2; disulfide 2-7)
3 | 0.0106 |  | FND | FD | FD | A (A = >90%) | A (A = >90%) | A (A = >90%) | A (A = >90%) | 0.38 nM | CC[C@H](C)[C@@H](C(=O)N[C@@H](CC(C)C)C(=O)N[C@@H](CO)C(=O)N[C@@H](CO)C(=O)N[C@H](C(=O)N[C@@H](CCC(=O)O)C(=O)N[C@H](C(=O)NCC(=O)N[C@@H](CO)C(=O)NCC(=O)N[C@H](C(=O)N1C[C@H](O)C[C@H]1C(N)=O)[C@@H](C)O)C(C)C)[C@@H](C)O)N(C)C(=O)[C@H](C)NC(=O)CN(C)C(=O)[C@H](Cc1ccccc1)NC(=O)[C@H](CO)NC(=O)[C@H](CO)NC(=O)[C@H](CCCNC(=N)N)NC(=O)[C@@H](NC(=O)[C@H](CC(C)C)NC(=O)[C@H](Cc1ccccc1)NC(=O)[C@H](Cc1c[nH]cn1)NC(=O)[C@H](C)NC(=O)[C@H](CC(C)C)NC(=O)[C@H](CCCNC(=N)N)NC(=O)[C@H](CCC(=O)O)NC(=O)[C@@H](NC(=O)[C@H](C)NC(=O)[C@@H]1CSSC[C@H](NC(=O)[C@H](CCCNC(=N)N)NC(=O)CC[C@H](NC(=O)CCCCCCCCCCCCCCCCCCC(=O)O)C(=O)O)C(=O)NCC(=O)N[C@@H]([C@@H](C)O)C(=O)N[C@@H](C)C(=O)N[C@@H]([C@@H](C)O)C(=O)N1)[C@@H](C)O)[C@@H](C)O [Compound 13, [19CD]-isoGlu-R-C( )-GTAT-C( )-ATERLAHFLTRSSF-Gly(Me)-A-Ile(Me)-LSSTEVGSGT-Hyp-NH2] ({C20 diacid-γGlu}-RCGTATCATERLAHFLTRSSF[Sar]A[NMeI]LSSTEVGSGT[Hyp]-NH2; disulfide 2-7)
